This passage reports drug sensitivity score results from the supplement of paper PMC12592484.

Molecules are shown by their SMILES.

Test in all cases: drug sensitivity score (DSS2, normalised partial AUC of dose-response, 72 h CellTiter-Glo viability) (DSS (dimensionless)); higher = more sensitive (stronger growth inhibition / cytotoxicity); extreme values may be limits of the assay
In general terms: ATP-based viability assays read luminescence as a measure of living cells.

One assay has as its system 22Rv1. In short, it runs like this: (§1)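 Viability of low-passage primary prostate cancer-associated fibroblasts, PF179T, WPMY-1, LNCaP and 22Rv1 cells was read by CellTiter-Glo 2.0 luminescence 72 h after seeding onto compounds pre-dispensed in 384-well plates at five doses over a 10,000-fold range. Readings were scaled between vehicle and positive-control wells. Sensitivity is reported as a drug sensitivity score from BREEZE, namely a partial area under the fitted logistic curve divided by the log of its upper asymptote, where higher means more sensitive.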

The test system of a further assay is CAF#1 (primary prostate cancer-associated fibroblasts of myCAF-like type). In outline: as §1
The test system of the next assay is CAF#2 (primary prostate cancer-associated fibroblasts of iCAF-like type). In short, it runs like this:
as §1

A further assay relates to CAF#3 (primary prostate cancer-associated fibroblasts of myCAF-like type). In short, it runs like this:
as §1

The next assay deals with CAF#4 (primary prostate cancer-associated fibroblasts of iCAF-like type). In outline: as §1
In a further assay the test system is CAF#5 (primary prostate cancer-associated fibroblasts of myCAF-like type). In outline:
as §1

For a further assay, the system named is CAF#6 (primary prostate cancer-associated fibroblasts of iCAF-like type). In short, it runs like this:
as §1

In another assay the test system is CAF#7 (primary prostate cancer-associated fibroblasts of myCAF-like type). In short, it runs like this: as §1
In the next assay the test system is LNCAP. In short, it runs like this:
as §1

In a further assay the test system is PF179T. In short, it runs like this: as §1
The subject of another assay is WPMY-1. In short, it runs like this: as §1

Take `Cn1cncc1[C@@](N)(c1ccc(Cl)cc1)c1ccc2c(c1)c(-c1cccc(Cl)c1)cc(=O)n2C` [Tipifarnib] (tested concentration range 1-10000 nM): the drug sensitivity score is 13.8 with 22Rv1; 2.1 with CAF#1; 7.6 in the assay with CAF#2; 7.3 in the assay with CAF#3; 7 in the assay with CAF#4; 4.8 with CAF#5. In addition, the drug sensitivity score with CAF#6 was found to be 3.2; in the assay with CAF#7, 1.4; with LNCAP, 14.8; in the assay on PF179T, 4.6; in the assay on WPMY-1, 9.8.
With `COc1cc2nccc(Oc3ccc(NC(=O)Nc4cc(C)on4)c(Cl)c3)c2cc1OC` [Tivozanib] (tested concentration range 1-10000 nM), the drug sensitivity score is 1.6 in the assay with 22Rv1; 6.2 with CAF#1; 7.7 with CAF#2; 6 in the assay on CAF#3; 4.6 in the assay on CAF#4; 6.9 in the assay with CAF#5. Also, the drug sensitivity score with CAF#6 amounted to 4.2; in the assay with CAF#7, 6; in the assay with LNCAP, 4.8; in the assay on PF179T, 3; in the assay with WPMY-1, 4.6.
In the case of `C[C@@H]1CCN(C(=O)CC#N)C[C@@H]1N(C)c1ncnc2[nH]ccc12` [Tofacitinib] (tested concentration range 0.5-5000 nM), the drug sensitivity score was determined as 0 in the assay on 22Rv1; 1.3 in the assay on CAF#1; 1 in the assay on CAF#2; 1.6 in the assay on CAF#3; 0 in the assay on CAF#4; 0.4 with CAF#5. The drug sensitivity score in the assay with CAF#6 is 0; in the assay on CAF#7, 0.1; in the assay with LNCAP, 0; in the assay with PF179T, 0; in the assay on WPMY-1, 0.
As for `CC[C@@]1(O)C(=O)OCc2c1cc1n(c2=O)Cc2cc3c(CN(C)C)c(O)ccc3nc2-1` [Topotecan] (tested concentration range 1-10000 nM), the drug sensitivity score with 22Rv1 amounted to 24.5; in the assay with CAF#1 it was 8.9; in the assay on CAF#2, 10.3; in the assay with CAF#3, 4.8; with CAF#4, 8.1; in the assay on CAF#5, 6.9. Moreover, the drug sensitivity score in the assay on CAF#6 is 4.8; in the assay with CAF#7 it was 5.3; in the assay on LNCAP, 22.7; in the assay with PF179T, 8.7; in the assay with WPMY-1, 14.6.
For the compound `CC(C)C[C@@H](C(=O)N[C@H](C(=O)OC1CCCC1)c1ccccc1)[C@H](O)C(=O)NO` [Tosedostat] (tested concentration range 1-10000 nM), the drug sensitivity score came out at 4.4 with 22Rv1; 0 in the assay with CAF#1; 0.6 with CAF#2; 1 in the assay with CAF#3; 0 with CAF#4; 3.5 in the assay on CAF#5. Further, the drug sensitivity score came out at 2.7 with CAF#6; 5.1 with CAF#7; 8.6 in the assay on LNCAP; 1.2 in the assay with PF179T; 9.3 with WPMY-1.
With `Cc1cc(Nc2cc(N3CCN(C)CC3)nc(Sc3ccc(NC(=O)C4CC4)cc3)n2)n[nH]1` [Tozasertib] (tested concentration range 1-10000 nM), the drug sensitivity score in the assay on 22Rv1 was 5.5; in the assay with CAF#1, 3.2; with CAF#2, 8.4; in the assay on CAF#3, 4.9; with CAF#4 it was 3.2; in the assay with CAF#5, 3.5. Further, the drug sensitivity score in the assay on CAF#6 is 3; in the assay on CAF#7, 4.7; in the assay on LNCAP, 7; in the assay on PF179T it was 8.2; in the assay with WPMY-1, 14.5.
On to `CC(=O)Nc1cccc(-n2c(=O)n(C3CC3)c(=O)c3c(Nc4ccc(I)cc4F)n(C)c(=O)c(C)c32)c1` [Trametinib] (tested concentration range 0-250 nM), for which the drug sensitivity score turned out to be 11.8 in the assay on 22Rv1; 3 in the assay on CAF#1; 5.5 in the assay with CAF#2; 0 in the assay with CAF#3; 1.3 in the assay with CAF#4; 2.7 in the assay with CAF#5. The drug sensitivity score worked out at 1.7 in the assay on CAF#6; 4.2 with CAF#7; 0 with LNCAP; 1.8 with PF179T; 5.5 in the assay with WPMY-1.
`CC1=C(/C=C/C(C)=C/C=C/C(C)=C/C(=O)O)C(C)(C)CCC1` [Tretinoin] (tested concentration range 1-10000 nM): the drug sensitivity score in the assay on 22Rv1 amounted to 0; in the assay with CAF#1, 1.4; in the assay with CAF#2 it was 5; with CAF#3, 0.2; in the assay with CAF#4 it was 0; in the assay on CAF#5, 1.7. Also, the drug sensitivity score in the assay with CAF#6 worked out at 2.7; in the assay with CAF#7 it was 5; with LNCAP it was 0; with PF179T, 8.2; in the assay with WPMY-1 it was 0.
Turning to `NC(=S)N/N=C/c1ncccc1N` [Triapine] (tested concentration range 1-10000 nM), the drug sensitivity score in the assay on 22Rv1 was 4; with CAF#1, 0; in the assay on CAF#2 it was 3.3; in the assay with CAF#3, 0.6; in the assay on CAF#4 it was 0; in the assay on CAF#5, 1.3. In addition, the drug sensitivity score with CAF#6 came out at 1; with CAF#7 it was 0.8; in the assay with LNCAP, 3.2; with PF179T, 2.2; in the assay on WPMY-1 it was 4.9.
On to `O=c1[nH]c(=O)n([C@H]2C[C@H](O)[C@@H](CO)O2)cc1C(F)(F)F` [Trifluridine] (tested concentration range 1-10000 nM), for which the drug sensitivity score with 22Rv1 was 5; with CAF#1 it was 0; with CAF#2, 1; in the assay on CAF#3, 0; in the assay with CAF#4, 0; in the assay with CAF#5, 0. Moreover, the drug sensitivity score was 0 in the assay on CAF#6; 0 in the assay with CAF#7; 4 in the assay on LNCAP; 0.1 in the assay with PF179T; 4.7 with WPMY-1.
For the compound `O=C(CCCCCCC(=O)Nc1ccc([C@H]2O[C@@H](CSc3nc(-c4ccccc4)c(-c4ccccc4)o3)C[C@@H](c3ccc(CO)cc3)O2)cc1)NO` [Tubacin] (tested concentration range 1-10000 nM), the drug sensitivity score was 5.6 in the assay with 22Rv1; 2 in the assay on CAF#1; 2.4 in the assay on CAF#2; 0 in the assay on CAF#3; 1.4 in the assay with CAF#4; 2.3 in the assay on CAF#5. Further, the drug sensitivity score was 1.1 in the assay on CAF#6; 3.3 in the assay with CAF#7; 7 with LNCAP; 3.4 with PF179T; 5.3 in the assay with WPMY-1.
Regarding `CN1CCc2c(c3ccccc3n2Cc2ccc(C(=O)NO)cc2)C1` [Tubastatin A] (tested concentration range 1-10000 nM), the drug sensitivity score in the assay with 22Rv1 came to 2.3; with CAF#1, 0; in the assay with CAF#2 it was 0.2; in the assay on CAF#3, 0.6; in the assay on CAF#4, 2.8; with CAF#5 it was 0. For the same compound, the drug sensitivity score in the assay on CAF#6 was 0; in the assay on CAF#7, 0; with LNCAP, 1.4; in the assay on PF179T, 0; in the assay with WPMY-1, 5.9.
